Measured values: patent US20220341943A1, “XBP1 ISOFORM MULTIPLEX ASSAY” (Randox Laboratories Ltd, priority 2019, published 2022)

What was measured:
Assay type in all cases: cell-based
[1] = system: XBP1s, MDA-MB-231 cells; experiment: Immunoblot of XBP1 isoforms in MDA-MB-231 cells; details: for XBP1s translation (immunoblot): Tg 48 h, Tm 1 μg/ml 16 h, BFA 0.5 μg/ml 16 h, DTT 4 mM 2 h; for XBP1s (immunoblot) under IRE1α RNase inhibition: 4μ8C 32 μM or MKC-8866 20 μM, 48 h
Description: (§1) Cell culture and treatments MCF10A (ATCC) cells were maintained in DMEM/F-12 (Sigma-Aldrich, St. Louis, USA) supplemented with 5% horse serum (Sigma-Aldrich, St. Louis, USA), 20 ng/mL epidermal growth factor (PeproTech, London, UK), 0.5 μg/mL Hydrocortisone (Sigma-Aldrich, St. Louis, USA), 100 ng/mL Cholera toxin (Sigma-Aldrich, St. Louis, USA), 10 μg/mL insulin (Sigma-Aldrich, St. Louis, USA), 50 U/mL^1 penicillin, and 50 μg/mL streptomycin (St. Sigma-Aldrich, St. Louis, USA). MCF7 cells (ECACC) were cultured in DMEM high glucose (Sigma-Aldrich, St. Louis, USA) supplemented with 10% FBS, 0.01 mg/mL Insulin (Sigma-Aldrich, St. Louis, USA), and 2 mM L-glutamine. MDA-MB-231 cells were cultured in DMEM high glucose (Sigma-Aldrich, St. Louis, USA) supplemented with 10% FBS, 50 U/mL^1 penicillin, 50 μg/mL streptomycin, and 2 mM L-glutamine. U937 and THP-1 (ATCC, Manassas, USA) cells were cultured in RPMI-1640 medium (Sigma-Aldrich, St. Louis, USA) supplemented with 10% foetal bovine serum (FBS) (Sigma-Aldrich, St. Louis, USA), 50 U/mL penicillin, 50 μgml^−1 streptomycin (Sigma-Aldrich, St. Louis, USA), and 2 mM L-glutamine (Sigma-Aldrich, St. Louis, USA). All cells were cultured at 37° C., 5% CO2 in a humidified incubator and adherent cells seeded at an appropriate density 24 h prior to treatment. U937 cells were seeded at 5×10^5 cells/mL and treated immediately while THP-1 cells were seeded at 1×10^6 cells/mL and treated after 2 hours.
(§2) Sample preparation Cells were washed once in ice cold phosphate buffered saline (PBS) and then lysed in either RIPA buffer (Sigma-Aldrich, St. Louis, USAUSA) with RocheSTOP protease inhibitors (Roche, Basel, Switzerland) for protein analysis or directly lysed in TriReagent (Sigma-Aldrich, St. Louis, USAUSA) as per manufactures instructions for RNA analysis.
Immunoblotting Protein lysates were mixed with 5× Laemmli Buffer (0.3125 M Tris HCl (pH 6.8), 10% SDS, 50% glycerol, 25% 2-mercaptoethanol, 0.02% bromophenol blue) in a 1:4 ratio and boiled at 95° C. for 5 min. Samples were separated on an SDS polyacrylamide gel, transferred onto nitrocellulose membrane (GE Healthcare Life Sciences, Little Chalfont, UK) and blocked with 5% milk in Wash Buffer (Randox Laboratories Ltd., Crumlin, UK). Membranes were probed with commercial antibodies to spliced and unspliced XBP1 isoforms and Actin (Sigma-Aldrich, St. Louis, USA, 1:5000). Anti-rabbit (Jackson ImmunoResearch, Cambridge, UK) and anti-mouse (Jackson ImmunoResearch, Cambridge, UK; Sigma-Aldrich, St. Louis, USA) HRP-conjugated secondary antibodies were incubated for 45-60 min and the signal was visualized using western blotting luminol reagent (Thermofisher, Waltham, USA; Perkin-Elmer, Waltham, USA).

[2] = system: XBP1s, MCF7 cells; experiment: Immunoblot of XBP1 isoforms in MCF7 cells; details: 4μ8C 32 μM or MKC-8866 20 μM, 48 h
Description: as §1, with “U937 cells were seeded at 5×10^5 cells/mL and treated immediately while THP-1 cells were seeded at 1×10^6 cells/mL and treated after 2 hours.” left out

[3] = system: XBP1 splicing, MDA-MB-231 cells; experiment: XBP1 biochip quantification of XBP1s and XBP1u in MDA-MB-231 lysates; details: for XBP1s quantified by XBP1 biochip: 4μ8C 32 μM (p=0.035) or MKC-8866 20 μM (p=0.033); for Paclitaxel induced increase in XBP1s under IRE1α RNase inhibition: Paclitaxel 10 nM 48 h plus inhibitor, p<0.01; for XBP1u levels: Paclitaxel, MKC-8866 and/or 4μ8C treatment; for XBP1u protein levels during IRE1α inhibition: XBP1 biochip, p=0.71
Description: (§3) Biochip-based determination of XBP1s and XBP1u. XBP1s and XBP1u levels and raw signal were quantified using the Evidence Investigator analyser (EV3602, Randox Laboratories Ltd., UK). Signals from defined discrete test regions were detected using digital imaging technology. The biochips were provided in wells in a carrier in a 3×3 format (9 reaction wells per carrier). A carrier handling tray supplied with the system accommodated 6 carriers. The total assay protocol was performed according to manufacturer's instructions. Briefly, RIPA lysed samples were diluted to 100 μL in RIPA buffer followed by dilution to 200 μL in XBP1 assay buffer and mixed well with gentle pipetting. 200 μL of XBP1 assay diluent was then applied to the surface of the biochip followed by 200 μL diluted sample or 100 μL calibrator/control per well. Following a 60-minute incubation at 37° C., 370 RPM in a thermoshaker (Randox Laboratories Ltd., Crumlin, UK) liquid contents were removed with a sharp flick and washed in a 2× quick, 4×2 min wash steps. 300 μL of HRP conjugated pan-XBP1 detector was applied to each well and another 60 min incubation at 37° C., 370 RPM in a thermoshaker was performed. Following another wash as above 250 μL of a 1:1 ratio of EV841 luminol and peroxide was applied to the surface of each biochip in a carrier and incubated away from direct light for 2 min. Carriers were then submitted to the Evidence Investigator, light emitted from each DTR detected by the CCD camera and signal quantified by the instrument software. Final values in pg/mg were obtained by dividing reported value (in pg) by total protein loaded per well, as determined by bicinchoninic acid (BCA) assay. Calibration curves, inferred values and goodness of fit were independently confirmed using R package nplr (0.1-7, Frederic Commo, https://cran.r-project.org/web/packages/nplr/index.html).
as §1, §2

[4] = system: XBP1 splicing, MCF7 cells; experiment: XBP1 biochip quantification of XBP1s and XBP1u in MCF7 lysates; details: 48 h; for XBP1s quantified by XBP1 biochip: 4μ8C 32 μM (p=0.004) or MKC-8866 20 μM (p=0.008)
Description: as §3, with “https://cran.r-project.org/web/packages/nplr/index.html). […]” for “https://cran.r-project.org/web/packages/nplr/index.html).”

[5] = system: NLRP3 mediated IL-1β release, THP-1 cells; experiment: Immunoblot of IL-1β in conditioned media of THP-1 cells; details: LPS and nigericin activated
[6] = system: XBP1 splicing, THP-1 cells; experiment: XBP1 biochip and RT-PCR assessment of THP-1 cells after NLRP3 inflammasome activation; details: for XBP1 splicing upon inflammasome activation: LPS 1 μg/ml 4 h followed by nigericin 10 μM 45 min (used together)
Description: as §3
Cell culture and treatments MCF10A (ATCC) cells were maintained in DMEM/F-12 (Sigma-Aldrich, St. Louis, USA) supplemented with 5% horse serum (Sigma-Aldrich, St. Louis, USA), 20 ng/mL epidermal growth factor (PeproTech, London, UK), 0.5 μg/mL Hydrocortisone (Sigma-Aldrich, St. Louis, USA), 100 ng/mL Cholera toxin (Sigma-Aldrich, St. Louis, USA), 10 μg/mL insulin (Sigma-Aldrich, St. Louis, USA), 50 U/mL^1 penicillin, and 50 μg/mL streptomycin (St. Sigma-Aldrich, St. Louis, USA). MCF7 cells (ECACC) were cultured in DMEM high glucose (Sigma-Aldrich, St. Louis, USA) supplemented with 10% FBS, 0.01 mg/mL Insulin (Sigma-Aldrich, St. Louis, USA), and 2 mM L-glutamine. MDA-MB-231 cells were cultured in DMEM high glucose (Sigma-Aldrich, St. Louis, USA) supplemented with 10% FBS, 50 U/mL^1 penicillin, 50 μg/mL streptomycin, and 2 mM L-glutamine. […]

## O[C@H](CS)[C@H](O)CS (racemic) [Dithiothreitol]
[1]
  XBP1s translation (immunoblot): upregulation

## Cc1cc(=O)oc2c(C=O)c(O)ccc12 [4μ8C]
[2]
  XBP1s (immunoblot) under IRE1α RNase inhibition: reduction
[1]
  XBP1s (immunoblot) under IRE1α RNase inhibition: reduction
[3]; MCF7 and MDA-MB-231, 4μ8C 32 μM versus MKC-8866 20 μM
  relative potency of inhibition of XBP1s (XBP1 biochip): more potent than MKC
[3]; MDA-MB-231, 48 h
  XBP1s quantified by XBP1 biochip: significant reductions
  XBP1u levels: no significant change
[3]; MDA-MB-231
  Paclitaxel induced increase in XBP1s under IRE1α RNase inhibition: completely ablated
  XBP1u protein levels during IRE1α inhibition: largely unchanged
[4]
  XBP1s quantified by XBP1 biochip: significant reductions
[4]; 4μ8C 32 μM, significant upregulation, p=0.019
  XBP1u protein expression level (average): 81.1 µg/mg

## C[C@H]1CCC/C=C/[C@@H]2C[C@H](O)C[C@H]2[C@H](O)/C=C/C(=O)O1 [Brefeldin A]
[1]
  XBP1s translation (immunoblot): upregulation

## COc1cc2c(C)c(CC(=O)N3CCOCC3)c(=O)oc2c(C=O)c1O [MKC-8866]
[2]
  XBP1s (immunoblot) under IRE1α RNase inhibition: reduction
[1]
  XBP1s (immunoblot) under IRE1α RNase inhibition: reduction
[3]; MDA-MB-231, 48 h
  XBP1s quantified by XBP1 biochip: significant reductions
  XBP1u levels: no significant change
[3]; MDA-MB-231
  Paclitaxel induced increase in XBP1s under IRE1α RNase inhibition: completely ablated
  XBP1u protein levels during IRE1α inhibition: largely unchanged
[5]
  IL-1β release: ablates
[6]; LPS and nigericin activated, p=0.048
  XBP1s expression upon MKC-8866 mediated inhibition (XBP1 biochip): significant changes
[6]; mean=46.2 μg/mg over treatments, one-way ANOVA p=0.408
  XBP1u levels (XBP1 biochip): largely unchanged
[4]
  XBP1s quantified by XBP1 biochip: significant reductions

## CC(=O)O[C@H]1C(=O)[C@@]2(C)[C@H]([C@H](OC(=O)c3ccccc3)[C@]3(O)C[C@H](OC(=O)[C@H](O)[C@@H](NC(=O)c4ccccc4)c4ccccc4)C(C)=C1C3(C)C)[C@]1(OC(C)=O)CO[C@@H]1C[C@@H]2O [Paclitaxel]
[3]; MDA-MB-231, Paclitaxel 10 nM, 48 h, from 66.9±16.2 without Paclitaxel, p=0.036
  XBP1s expression: 125.0 ± 14.1 µg/mg
[3]; MDA-MB-231, 48 h
  XBP1u levels: no significant change

## C/C=C(/C)C(=O)O[C@H]1C(C)=C2[C@H]([C@@H]1OC(=O)CCCCCCC)[C@@](C)(OC(C)=O)C[C@H](OC(=O)CCC)[C@@]1(O)[C@H]2OC(=O)[C@@]1(C)O [Thapsigargin]
[1]
  XBP1s translation (immunoblot): upregulation

## CO[C@@H]1C[C@@H](C[C@H]2CC[C@H](C)[C@H]([C@@H](C)C(=O)O)O2)O[C@]2(O[C@](C)([C@H]3CC[C@@](C)([C@@H]4O[C@@H]([C@H]5O[C@@](O)(CO)[C@H](C)C[C@@H]5C)C[C@@H]4C)O3)C[C@H]2C)[C@@H]1C [nigericin, Nigericin]
[6]
  XBP1 splicing upon inflammasome activation: increase

## Lipopolysaccharide [LPS]
[6]
  XBP1 splicing upon inflammasome activation: increase

## Tunicamycin
[1]
  XBP1s translation (immunoblot): upregulation
